Results: patent US12544375B2, “Small molecule therapeutic for parkinson's disease paired with a biomarker of therapeutic activity” (The Board of Trustees of the Leland Stanford Junior …, priority 2019, dated 2026)

Key:
fibroblasts = experiment: Cytotoxicity: mitochondrial matrix and cytosolic proteins in fibroblasts with CCCP; format: cell-based, human; settings: combined with CCCP treatment for 6 hrs
Method: (§1) FIG. 2A-FIG. 2F. Miro1 Reducer Eliminates the Miro1 Defect in PD Fibroblasts. (FIG. 2A) Chemical properties of Miro1 Reducer. (FIG. 2B) Wild-type flies (w^1118) were fed with DMSO alone (0 μM Miro1 Reducer) or Miro1 Reducer in DMSO at 250 μM for 7 days, and lysed and blotted as indicated. The band intensities are normalized to those of Tubulin from the same blots. n=4. (FIG. 2C-FIG. 2E) Fibroblasts were treated, lysed, and blotted as indicated. (FIG. 2C) Band intensities are normalized to those of GAPDH from the same blots and compared to “Healthy-1, no treatment” except otherwise indicated. n=4. (FIG. 2D) Band intensities are normalized to those of ATP5β from the same blots and expressed as a percentage of the mean of “0 μM Miro1 Reducer with CCCP”. Mean±S.E.M is shown. n=3. (FIG. 2E) Band intensities are normalized to those of GAPDH from the same blots and compared to “Healthy-1, no CCCP, no MG132” except otherwise indicated. n=4. (FIG. 2F) Healthy-1 and PD-2 fibroblasts were transfected as indicated, and immunostained with anti-Myc (Miro1, green) and stained with Dapi (blue). The Miro1 intensity is normalized to that of mito-dsRed from the same cell and quantified across 37-62 cells from 5 fields each transfection, 3 independent transfections. Scale bars: 50 μm. For (FIG. 2C-FIG. 2F), both CCCP and Miro1 Reducer were dissolved in DMSO. […]

OPA1 = OPA1 level in fibroblasts, Western blotting; format: cell-based, human; settings: FIG. 2D
Method: as §1

Miro1 = molecular target: T1, Miro1 (Homo sapiens, UniProt Q8IXI2); experiment: Miro1 response to CCCP in PD fibroblasts, Western blotting; format: cell-based
T1 construct: We applied compound 3 to fibroblasts from one sporadic PD patient (PD-2); endogenous in cells; host or cells: human skin fibroblasts (PD-2, Healthy-1 and further PD/control lines)
T1 sequence (Q8IXI2 whole entry): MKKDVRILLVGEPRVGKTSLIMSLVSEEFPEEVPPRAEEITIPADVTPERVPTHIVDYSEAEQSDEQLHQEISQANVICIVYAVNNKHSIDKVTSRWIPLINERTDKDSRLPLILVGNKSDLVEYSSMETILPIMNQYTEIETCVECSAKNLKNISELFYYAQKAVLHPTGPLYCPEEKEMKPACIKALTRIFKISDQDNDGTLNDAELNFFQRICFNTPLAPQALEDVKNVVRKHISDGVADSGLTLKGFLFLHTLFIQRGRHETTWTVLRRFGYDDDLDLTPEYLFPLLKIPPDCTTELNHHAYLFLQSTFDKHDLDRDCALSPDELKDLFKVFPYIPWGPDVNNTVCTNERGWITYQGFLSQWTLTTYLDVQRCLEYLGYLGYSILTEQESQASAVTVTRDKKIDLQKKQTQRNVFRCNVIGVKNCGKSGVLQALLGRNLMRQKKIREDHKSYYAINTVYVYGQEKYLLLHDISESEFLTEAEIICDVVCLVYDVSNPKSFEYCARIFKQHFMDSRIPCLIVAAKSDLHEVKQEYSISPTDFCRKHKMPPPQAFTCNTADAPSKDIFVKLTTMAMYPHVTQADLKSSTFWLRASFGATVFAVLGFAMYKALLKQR
Method: FIG. 2A-FIG. 2F. Miro1 Reducer Eliminates the Miro1 Defect in PD Fibroblasts. (FIG. 2A) Chemical properties of Miro1 Reducer. (FIG. 2B) Wild-type flies (w^1118) were fed with DMSO alone (0 μM Miro1 Reducer) or Miro1 Reducer in DMSO at 250 μM for 7 days, and lysed and blotted as indicated. The band intensities are normalized to those of Tubulin from the same blots. n=4. (FIG. 2C-FIG. 2E) Fibroblasts were treated, lysed, and blotted as indicated. (FIG. 2C) Band intensities are normalized to those of GAPDH from the same blots and compared to “Healthy-1, no treatment” except otherwise indicated. n=4. (FIG. 2D) Band intensities are normalized to those of ATP5β from the same blots and expressed as a percentage of the mean of “0 μM Miro1 Reducer with CCCP”. Mean±S.E.M is shown. n=3. (FIG. 2E) Band intensities are normalized to those of GAPDH from the same blots and compared to “Healthy-1, no CCCP, no MG132” except otherwise indicated. n=4. (FIG. 2F) Healthy-1 and PD-2 fibroblasts were transfected as indicated, and immunostained with anti-Myc (Miro1, green) and stained with Dapi (blue). The Miro1 intensity is normalized to that of mito-dsRed from the same cell and quantified across 37-62 cells from 5 fields each transfection, 3 independent transfections. Scale bars: 50 μm. For (FIG. 2C-FIG. 2F), both CCCP and Miro1 Reducer were dissolved in DMSO. Cells were pretreated with Miro1 Reducer 24 hrs before the application of CCCP for another 6 hrs. The same volume of DMSO was applied at the same time in negative controls.
FIG. 3A-FIG. 3D. Miro1 Reducer Rescues Parkinson's Neurodegeneration. (FIG. 3A) Fibroblasts were treated, lysed, and blotted as indicated. Band intensities are normalized to those of ATP5β from the same blots and compared to “Healthy-2, no treatment”. n=4. (FIG. 3B-FIG. 3C) iPSC-derived neurons were treated as indicated and immunostained with anti-TH (FIG. 3B) or stained with PI and Dapi (FIG. 3C). Both Antimycin A and Miro1 Reducer were dissolved in ethanol. Neurons were pretreated with Miro1 Reducer 24 hrs before the application of Antimycin A for another 6 hrs. The same volume of ethanol was applied at the same time in negative controls. (FIG. 3B) The density of TH-positive neurons is calculated in each condition under 20×, from 10 fields each experiment, 3-4 experiments. […] (FIG. 3C) The percentage of PI-positive cells out of total cells (Dapi-positive) is calculated. n=20 fields each experiment, 4 experiments. […] Graphs of Mean±S.E.M show the percent of time each mitochondrion is in motion (red and blue, compared to “Wild-type-I, before treatment”), and the mitochondrial intensity normalized to that of the same axonal region at “0 min” and expressed as a fraction of the mean of “Wild-type-I, 0 min”. n=33-77 mitochondria from 5-8 axons from 5-8 separate transfections. […]

O=C(Nc1ccc(Nc2cc(-n3ccnc3)ncn2)cc1)Nc1cccc(F)c1 [Miro1 Reducer]
concentrations impacting multiple mitochondrial matrix and cytosolic proteins, indicating cytotoxicity (fibroblasts): > 25 µM | IMM dynamin GTPase OPA1 level (OPA1): not reduced | Miro1 degradation following CCCP treatment (Miro1; PD-2 fibroblasts, 10 μM for 30 hrs, CCCP 6 hrs): robustly promoted Miro1 degradation | reduction of Miro1 protein in presence of proteasome inhibitor MG132 (Miro1; PD-2 fibroblasts, following CCCP treatment): blocked by the proteasome inhibitor MG132 | Miro1 degradation after depolarization in additional lines (Miro1; additional 4 control and 4 sporadic PD fibroblast cell lines): same beneficial change of Miro1 degradation after depolarization | IC50 (Miro1; fibroblasts pretreated 24 hrs, then CCCP 6 hrs, FIG. 2D, read-out: Miro1 protein levels, dose-dependent response (IC50)): 7.8 µM
